Laboratory results published in patent US20100196287A1, “Compositions Comprising Perhydrolases and Alkylene Glycol Diacetates” (priority 2007, published 2010).

How the values were obtained:
Toxicity (statement) = settings: in contrast to methyl acetate
[1] = Washing test on stained fabric with perhydrolase and substrate, tea stain; settings: 50 mM substrate, 60 min., 40° C.; in comparison with methyl acetate; FIG. 1
Experimental: (§1) • blueberry juice on cotton: product no. C15 from CFT B. V. Vlaardingen, Holland • tea on cotton: product no. 167, Eidgenössische Material- and Prüfanstalt (EMPA) Testmaterialien AG, St. Gallen, Switzerland
(§2) After incubation, the stains were washed three times (3×), dried and fixed. Intensity was measured with a colorimeter Cm508d (Minolta). For this test, round pieces of the test fabric (diameter 10 mm) were incubated in 1 ml alkaline solution in a 24 well microtitration plate. Each test was carried out as a triple determination against a triply determined control. After washing, the degree of whiteness of the washed fabrics was measured in comparison with a whiteness standard (d/8, Ø 8 mm, SCl/SCE), which had been set at 100% (L-value determination). The measurement was made using a colorimeter (Minolta Cm508d) with a light setting of 10°/D65. The results were expressed as percent power, wherein the difference of the reflectance value of the base washing agent without enzymes but with substrate was normalized to 100% (with the comparison substrate methyl acetate).

[2] = Washing test on stained fabric with perhydrolase and substrate, blueberry stain; settings: 50 mM substrate, 60 min., 40° C.; in comparison with methyl acetate; FIG. 1
Experimental: as §1, §2

[3] = Water solubility (statement); assay type: physicochemical; settings: in contrast to methyl acetate

washing power for tea stains [1]	washing power for blueberry stains [2]	water solubility [3]	Structure (SMILES)	toxicity (Toxicity (statement))
significantly better	comparable	–	CC(=O)OCCOC(C)=O [Ethylene glycol diacetate]	non-toxic
comparable	comparable	highly water-soluble	CC(=O)OCC(C)OC(C)=O (stereo not shown) [Propylene glycol diacetate]	non-toxic
